Measurements from the METLIN SMRT retention time set (Domingo-Almenara et al. 2019).

Assay: gradient 5% acetonitrile 3 min, to 50% in 2 min, to 85% in 15 min, held 3 min, 100 µL/min
Details: column: Zorbax Extend-C18 2.1 x 50 mm; eluents: water / acetonitrile, 0.1% formic acid
Procedure, shortened: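 Retention time was recorded from adduct peaks, which were picked computationally and each inspected manually. Pure standards ran in mixtures of ~100 molecules on HPLC coupled to a quadrupole time-of-flight mass spectrometer, in positive and negative ionization mode, through a Zorbax Extend-C18 column (2.1 × 50 mm, 1.8 μm) at 100 μL/min. Eluents were water and acetonitrile, each with 0.1% formic acid.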

Row | SMILES | RP-LC retention time [s]
1 | CCCCn1c(CN2CCOCC2)nc2cc(NC(=O)CC(C)C)ccc21 | 665
2 | CC(C)Cn1nc2c(S(=O)(=O)N3CCN(c4ccc(F)cc4)CC3)cccn2c1=O | 914
3 | Cc1nc(OCC(=O)NCc2cccc(Cl)c2)c2c(C)c(C)oc2n1 | 929
4 | O=C(CCC(=O)N1CC2CCCN2c2ccccc21)NCc1ccc2c(c1)OCO2 (stereo not given) | 855
5 | Cn1nnc2ccc(-c3noc(-c4ccc(F)cc4)n3)cc21 | 981
6 | COc1ccccc1NC(=O)NC1CCN(c2cc(C)cc(C)c2)C1=O (stereo not given) | 881
7 | CN(C)S(=O)(=O)c1ccc(-c2nnc(C(=O)NCc3ccc(Cl)cc3)o2)cc1 | 909
8 | CN1C(=O)c2cccnc2Sc2cc(NC(=O)C3CCOC3)ccc21 (stereo not given) | 619
9 | O=C(CC1(O)C(=O)Nc2c(Cl)ccc(Cl)c21)c1ccc(Cl)cc1Cl (stereo not given) | 879
10 | CCNC(=O)C1CCCN(c2nc3ncn(CC(=O)NCc4ccc(F)cc4)c(=O)c3s2)C1 (stereo not given) | 648
11 | CN(C)c1ccc(CNC(=O)c2cc3c(=O)n(C)ccc3n2C)cc1 | 579
12 | O=C(Cn1cccc(-c2nc(-c3ccccc3)no2)c1=O)Nc1cccc(Br)c1 | 940
13 | Cc1noc(C)c1S(=O)(=O)N1CCc2nn(Cc3ccccc3)c(=O)n2CC1 | 776
14 | Cc1csc(-c2cc(S(=O)(=O)N3CCN(Cc4ccc5c(c4)OCO5)CC3)c(C)s2)n1 | 740
15 | CC(C)CN1C(=O)c2ccccc2C(C(=O)NCCCN2CCCC2=O)C1c1cccs1 (stereo not given) | 740
16 | O=C(c1ccc(S(=O)(=O)c2ccc(Br)cc2)nc1)N1CCN(c2ccccn2)CC1 | 673
17 | COc1ccc(Cl)cc1NC(=O)c1coc(NC(=O)C2CC2)n1 | 770
18 | CSc1ccc(C(=O)NC2CCCCC2NC(=O)CNC(=O)c2cc(C(F)(F)F)ccc2NC(=O)NC(C)C)cc1 (stereo not given) | 924
19 | O=C(Cc1csc2nc(-c3cccc(Br)c3)cn12)NCc1ccc(F)cc1 | 909
20 | COC(=O)C1=CN(c2cccc(C(F)(F)F)c2)c2ccccc2S1(=O)=O | 900
21 | CCn1ccc(C(=O)NC)n1 | 566
22 | Cn1ncc(N2CCCC(CC(=O)N3CCSCC3)C2)cc1=O (stereo not given) | 666

Row | SMILES | RP-LC retention time [s]
23 | COc1ccc(C2c3cc4c(c(OC)c3CC3OCC(=O)C32)OCO4)cc1OC (stereo not given) | 609
24 | Cc1cc(NC(=O)C2(C)Oc3cccnc3NC2=O)ccc1F (stereo not given) | 739
25 | CC(C)c1ccc(-c2cc3c4nn(CC(=O)N5CCCC5)c(=O)n4ccn3n2)cc1 | 916
26 | CN(C)c1ccc(N2C=C(C(=O)N3CCOCC3)S(=O)(=O)c3ccc(Cl)cc32)cc1 | 875
27 | CC(C)Cn1cc(CCNS(=O)(=O)c2cccc(C(F)(F)F)c2)c2cccnc21 | 1030
28 | O=C(Cn1cccc(-c2nc(-c3ccccc3)no2)c1=O)Nc1ccc(Br)cc1F | 951
29 | Cc1nc(-c2ccc(S(=O)(=O)N3CCN(c4ccccn4)CC3)cc2)co1 | 640
30 | O=C(NC1CCCCCCC1)C1CC(=O)N(CCc2c[nH]c3ccc(F)cc23)C1 (stereo not given) | 859
31 | O=C(Nc1nc(-c2ccc(Cl)cc2Cl)cs1)c1ccno1 | 981
32 | COc1ccccc1NC(=O)CN1c2ccc(F)cc2-c2ccccc2S1(=O)=O | 1000
33 | c1ccc(-c2noc(-c3nc(-c4ccccn4)no3)n2)cc1 | 958
34 | O=C1CC(c2ccc3c(c2)OCO3)c2c(c(C(=O)O)cn2-c2cccc(F)c2)N1 (stereo not given) | 777
35 | CCc1nnc(NS(=O)(=O)c2ccc(NC(=O)c3ccco3)cc2)s1 | 680
36 | COc1ccc(NC(=O)Cn2cnc3c(sc4nc(-c5ccccc5)ccc43)c2=O)cc1Cl | 1030
37 | COc1cc2c(cc1CNC(=O)COc1ccc(Cl)cc1)OCCCO2 | 982
38 | CCOc1ccc(CNC(=O)C2CCN(C(=O)C3Sc4ccccc4NC3=O)CC2)cc1 (stereo not given) | 743
39 | CC1(C)CC(=O)c2cn(-c3ccc(Cl)cc3)c(=O)c(C(=O)N3CCCC3)c2C1 | 786
40 | CS(=O)(=O)N1C[C@@H](COc2cccnc2)[C@H](c2ccccn2)C1 | 554
41 | CCCCn1nc2ccc(S(=O)(=O)N3CCSCC3)cn2c1=O | 847
42 | O=C(NCC1CCCO1)c1cn(-c2ccc(NC(=O)C3CC3)cn2)cn1 (stereo not given) | 633
43 | CC(C)NC(=O)C1CCN(S(C)(=O)=O)c2cc(Cl)ccc2O1 (stereo not given) | 777
44 | Cc1ccc(-c2ccc(=O)n(CCc3nc(-c4ccccc4)no3)n2)cc1C | 1050

Row | SMILES | RP-LC retention time [s]
45 | COc1ccccc1NC(=O)c1cn(CC2CCCO2)cc2c(=O)n(-c3ccccc3)nc1-2 (stereo not given) | 983
46 | Cc1ccc(CNC(=O)c2ccc(CN3CCN(C4CCCC4)C(=O)C3=O)cc2)cc1C | 834
47 | Cc1ccsc1C(=O)N1CCC2(CC1)N=C(c1cccc(Br)c1)NO2 | 922
48 | Cc1ccc(CNC(=O)c2nc(-c3ccnc(N4CCCC4)c3)no2)o1 | 663
49 | O=S1(=O)C[C@H](N2CCN(c3ccccn3)CC2)[C@@H](S(=O)(=O)c2ccccc2)C1 | 598
50 | Cc1nc(Nc2ccc(Cl)cn2)sc1C(=O)N1CCN(C(C)C)CC1 | 612
51 | Cc1ccc2c(c1)c(=O)c1c(n2C)CCN(CC(=O)Nc2ccccc2Cl)C1 | 640
52 | CCc1ccc(S(=O)(=O)N2CCC3(CC2)NCCN=C3NCc2ccccc2C)cc1 | 791
53 | Cc1ccc(NC(=O)N2CCCC2C(=O)NC2CC2)cc1 (stereo not given) | 668
54 | Cc1ccc(S(=O)Cc2ccc(C(=O)N3CCN(c4ccccn4)CC3)o2)cc1 (stereo not given) | 587
55 | O=C(Cn1nc(Cc2cccnc2)c2ccccc2c1=O)N1CCN(C(=O)c2ccco2)CC1 | 578
56 | CCOc1ccc(-c2nnc(SCC(=O)N3c4ccccc4CC3C)o2)cc1 (stereo not given) | 1110
57 | Cc1cc(C)cc(NC(=O)CN2C(=O)CC(C)S(=O)(=O)c3ccccc32)c1 (stereo not given) | 846
58 | O=C(CCC1CCCN(S(=O)(=O)c2ccccc2)C1)N1CCN(c2ccccn2)CC1 (stereo not given) | 657
59 | Cc1nc2cc(-c3noc(-c4cccc(C(F)(F)F)c4)n3)ccc2o1 | 1220
60 | Cc1cc(C)c(NC(=O)C2CCN(c3c(C(=O)N4CCOCC4)cnc4snc(C)c34)CC2)c(C)c1 | 826
61 | O=C(c1ccoc1)N1CC(F)(F)C[C@H]1c1nnc(-c2ccncc2)o1 | 668
62 | CCN1c2cc(Cl)ccc2C(=O)NC12CCN(C(=O)Nc1ccc(OC)cc1)CC2 | 895
63 | CCS(=O)(=O)N1CCc2nc(-c3ccc(F)cc3)ncc2C1 | 847
64 | Cc1c(Cl)cccc1-n1ccnc(NC(=O)Nc2ccc3c(c2)OCO3)c1=O | 995
65 | COc1cc(OC)c(NC(=O)N2CCC(n3c(C(F)(F)F)nc4cccnc43)CC2)cc1Cl | 956
